In US20060210491A1, “Flavoured mouth wash composition” (priority 2003, published 2006):
In brackets after ≈: the same amount, converted by molar mass. Read-outs that look alike come from different tables or passages of the source.

What was measured:
[1] = system: protease activity (arg-gingipain) of Porphyromonas gingivalis; test: Protease enzyme assay (BAPNA substrate), synergy of flavour material with antimicrobial agent; format: biochemical, Porphyromonas gingivalis W50; conditions: compared with flavour material alone; for Classes of Synergy, increase in inhibition; Antimicrobial Agent Triclosan: flavour material 2500 ppm and 5000 ppm plus sub-MIC triclosan; for Classes of Synergy, increase in inhibition; Antimicrobial Agent Zinc Sulphate: flavour material 2500 ppm and 5000 ppm plus sub-MIC zinc sulphate
Description: The following assay was used to investigate the inhibition of protease activity (arg-gingipain) of the micro-organism Porphyromonas gingivalis (implicated in gum disease) by a flavour material or mixture of flavour materials.
Fresh buffer was prepared immediately before beginning the assay in the following manner: 3.029 g of Tris Base (Sigma, Poole, UK), 394 mg of L-cysteine hydrochloride (Sigma, Poole, UK) and 367.5 mg of calcium chloride dihydrate (Sigma, Poole, UK) were dissolved in 150 ml deionised water. In order to allow for pH differences resulting from any variation in ambient temperature, the temperature of the buffer was taken. The pH of TRIS buffers varies with temperature i.e. Δ pH=−0.031/° C. This assay should be carried out at a temperature of 30° C., with the buffer having a pH of 8.0. Thus, if the measured temperature of the buffer is, for example, 22° C. (room temperature) the pH should be adjusted to 8.24 with 2M hydrochloric acid, in order to give the desired conditions i.e. pH=8.0 at 30° C. After adjusting the pH, the buffer was made up to 200 ml with deionised water and incubated in a water bath at 30° C. for approximately one hour to reach temperature equilibrium before commencing the assay.
The enzyme substrate BAPNA (DL-α-benzoyl-DL-arginyl-p-nitro-anilide) (Sigma) is the synthetic substrate for the protease enzyme produced by the bacterium Porphyromonas gingivalis. The substrate is degraded by enzymes which show specificity for cleaving adjacent to arginine residues. This cleavage yields a yellow nitro-aniline product, which can be readily detected spectrophotometrically at 405 nm. 10.87 mg of the BAPNA substrate was added to 0.5 ml of dimethylsulphoxide (DMSO) and thoroughly dissolved. 9.5 ml of deionised water was then added. The resulting solution was then mixed by vortex and incubated at 30° C. in a water bath for about one hour before commencing the assay to allow temperature equilibration.
Porphyromonas gingivalis W50 ATCC 53978 (American Type Culture Collection (ATCC), P.O. Box 1549, Manassas, Va. 20108, USA) (may also be obtained from Prof. Philip Marsh, Centre for Applied Microbiology and Research, Salisbury, Wiltshire, SP4 OJG, UK) was sub-cultured from frozen stock cultures onto Schaedler Anaerobic Agar (Oxoid, Basingstoke, UK), and supplemented with 5% v/v horse blood (E&O Laboratories, Bonnybridge, Scotland, FK4 2HH). The plates were incubated at 37° C. in an anaerobic cabinet (Don Whitley Scientific, Shipley, UK) for 3-5 days. Single colonies grown on these plates were then inoculated into 250 ml Schaedler Anaerobic Broth (SAB) contained in bottles with cotton wool stoppers. The broths were then incubated in an anaerobic cabinet and allowed to grow for 3-5 days. This generally yielded a culture with an absorbance at 540 nm (A540) between 0.2 and 0.4.
Into 1.5 ml disposable plastic cuvettes was added 0.7 ml of assay buffer, followed by 0.2 ml of BAPNA solution and 0.1 ml of bacterial culture. The cuvettes were capped and mixed, then placed in a Pye Unicam 8620 Spectrophotometer (Pye Unicam, Cambridge, UK). The increase in absorbance at 405 nm […] was recorded over a period of 3 minutes.
The percentage inhibition of protease by a given flavour/flavour material was determined by the formula: [formula]
The synergy between flavour/flavour material and an antimicrobial agent against the protease activity of Porphyromonas gingivalis was then determined in the following manner. Firstly, the MIC value of the antimicrobial agent required to cause any inhibition of protease activity was determined using the method generally described in Example 1 for the determination of the MIC value of triclosan. […] The dilution immediately lower than the MIC value was selected as the sub-IC concentration of antimicrobial agent. All flavour materials were tested at 2500 ppm and 5000 ppm.
The percentage inhibition of protease by the flavour material and antimicrobial agent was determined as described above.

[2] = system: S. mutans; test: Potential synergy of triclosan with flavour materials (growth at sub-MIC concentrations); format: cell-based, Streptococcus mutans; conditions: for Synergy Shown: flavour material with triclosan against S. mutans; for 50% MIC without triclosan: growth of S. mutans with flavour material at 50% of its MIC alone; for 50% MIC and 8 ppm triclosan: growth of S. mutans with flavour material at 50% of its MIC plus 8 ppm triclosan
Description: This example describes a method for determining the potential synergy of triclosan with flavour materials against S. mutans.
A microtitre method using the procedure described below was employed.
Flavour materials were assessed at a final concentration of 50% of the MIC value determined according to Example 1 above, in combination with triclosan at 8 ppm, i.e. about 50% of the MIC value also determined as described in Example 1. Inhibition of growth by this combination of sub-MIC concentrations of flavour material and triclosan was taken to indicate antimicrobial synergy between the flavour material and triclosan.
100 μl of stock solution was added to the appropriate well of a standard 96-well microtitre plate. An equivalent volume of bacterial stock inoculum solution (prepared as in Example 1) was added giving the desired dilution in each well. A blank plate was prepared using the same process except that 100 μl of SAB was added instead of bacterial culture. The protocol for incubation, reading of results and interpretation was as described in Example 1.

[3] = system: Streptococcus mutans R9; test: Minimum inhibitory concentration (MIC), microtitre broth dilution; format: cell-based
Description: The minimum inhibitory concentration of an antimicrobial agent (triclosan), and a flavour material or mixture of flavour materials (flavour), was determined by the following method.
A culture of the test strain Streptococcus mutans R9, deposited under the Budapest Treaty with National Collections of Industrial, Food and Marine Bacteria Limited, 23 St Machar Drive, Aberdeen, AB24 3RY, Scotland, UK on 22nd Jan. 2004 and given accession number NCIMB 41209) (may also be obtained from Prof. Philip Marsh, Centre for Applied Microbiology and Research, Salisbury, Wiltshire, SP4 OJG, UK) was grown in 250 ml of PM broth (containing: peptone, 2% w/v; tryptone, 1% w/v; yeast extract, 1% w/v; KCl, 0.25% w/v; of approximately pH 7), anaerobically at 37° C. for 48 hours. The absorbance of the culture at 540 nm (A540) was measured and adjusted if necessary to between 0.2-0.3 by diluting with fresh (i.e. sterile) PM broth. The culture was then diluted in Schaedler Anaerobic Broth (SAB) (Oxoid, Basingstoke, UK) in a ratio of 1 part culture to 25 parts broth to give a stock inoculum culture.
Determination of the MIC of Triclosan Against S. mutans
Triclosan powder was dissolved in AR-grade ethanol, to a concentration of 32,000 ppm (3.2% w/v). This was diluted in Schaedler Anaerobic Broth (SAB) to yield two stock triclosan solutions of concentrations: 320 ppm (0.032% w/v) and 64 ppm (0.0064% w/v).
200 μl of the 320 ppm triclosan stock solution was then added to the first and seventh well of row A on a standard 96-well microtitre plate. All remaining wells in this row were filled with 100% of sterile SAB. The contents of well 1 and the contents of well 7 were independently mixed by repeatedly sucking the contents up and down a pipette tip. 100 μl from well 1 was transferred to the second well of row A and 100 μl from well 7 was transferred to the eighth well of row A. This process was repeated along the row until the sixth and twelfth wells contained 200 μl. After mixing, 100 μl from wells 6 and 12 was discarded to waste. Each successive well in row A therefore contained a two-fold dilution of triclosan compared with the preceding well (i.e. 80 ppm in wells 2 and 8; 40 ppm in wells 3 and 9, etc.), resulting in wells 6 and 12 having a concentration of 5 ppm. A similar series of dilutions was repeated starting with the 64 ppm triclosan stock solution into row B on a microtitre plate. This gave a range of triclosan concentrations from 32 ppm to 1 ppm following the dilution process described. Finally, 100 μl of the pre-diluted stock inoculum culture was added to all wells, thus giving a final volume of 200 μl in each well. Wells 1 and 7 of row A therefore contained a final concentration of 160 ppm triclosan.
A blank plate was prepared for each of the two samples by repeating the process described above, except that 100 μl of SAB was added instead of bacterial culture. This plate was used as the control plate against which the test plate(s) could be read.
Test and control plates were sealed using autoclave tape and incubated for 48 hours anaerobically at 37° C.
A microtitre plate reader (Model MRX, Dynatech Laboratories) was preset to gently agitate the plates and mix the contents. The absorbance at 540 nm “A540” was used as a measure of turbidity resulting from bacterial growth. The control, un-inoculated plate for each set of samples was read first, and the plate reader then programmed to use the control readings to blank all other plate readings for the inoculated plates for the same set of test materials (i.e. removing turbidity and possible colour changes during incubation which are due to chemical interactions). Thus, the corrected readings generated were absorbances resulting from turbidity from bacterial growth. The MIC was taken as the lowest concentration of triclosan required to inhibit growth so that the change in absorbance during the incubation period was <0.2 A540. […]

[4] = flavour material against S. mutans R9, 48 hours anaerobically at 37° C., read-out: MIC (ppm)

Structure (SMILES)	Classes of Synergy, increase in inhibition; Antimicrobial Agent Triclosan [1]	Classes of Synergy, increase in inhibition; Antimicrobial Agent Zinc Sulphate [1]	Synergy Shown [2]	50% MIC without triclosan [2]	50% MIC and 8 ppm triclosan [2]	MIC [3, 4]	MIC ([3]; R9, 48 h, read-out: MIC for triclosan against S. mutans R9)	MIC ([3]; R9, 48 h)
O=C(OCc1ccccc1)c1ccccc1 [Benzyl benzoate, benzyl benzoate]	+ (+ = >15% increase in inhibition)	− (− = <15% increase in inhibition)						
COC(=O)C=Cc1ccccc1 [Methyl Cinnamate, methyl cinnamate]	+ (+ = >15% increase in inhibition)	− (− = <15% increase in inhibition)						
CC/C=C\CCO [Cis-3-hexenol, cis-3-hexenol]	− (− = <15% increase in inhibition)	+ (+ = >15% increase in inhibition)						
CCCCCCCCC=O [Aldehyde C9, nonanal]			Yes	+	−	5000 µg/mL (≈ 35.2 mM)		
Oc1cc(Cl)ccc1Oc1ccc(Cl)cc1Cl [triclosan, 2′,4,4′-trichloro-2-hydroxy-diphenyl ether, reference compound]							10 to 16 µg/mL (≈ 0.0345 to 0.0553 mM)	
CCCCCCCCCC=O [Aldehyde C10, decanal]			Yes	+	−	5000 µg/mL (≈ 32 mM)		
C/C=C/c1ccc(OC)cc1 [Anethole Synthetic, anethole synthetic]	− (− = <15% increase in inhibition)	− (− = <15% increase in inhibition)						
CCCC(=O)OCc1ccccc1 [Benzyl Butyrate, benzyl butyrate]	− (− = <15% increase in inhibition)							
CCCCCCCCCCO [Alcohol C10, decanol]	+ (+ = >15% increase in inhibition)	+ (+ = >15% increase in inhibition)	Yes	+	−	5000 µg/mL (≈ 31.6 mM)		
CCCCCCCCCO [Alcohol C9, nonanol]	− (− = <15% increase in inhibition)	+ (+ = >15% increase in inhibition)	Yes	+	−	5000 µg/mL (≈ 34.7 mM)		
O=C/C=C/c1ccccc1 [Cinnamic Aldehyde Extra, cinnamic aldehyde]			Yes	+	−			625 µg/mL (≈ 4.73 mM)
